Data reported in publication PMC11042424, “Development of a First-in-Class RIPK1 Degrader to Enhance Antitumor Immunity” (Research Square, 2024).

Columns and labels:
[1] = test system: B16F10 tumors; assay: B16F10 syngeneic tumor model with anti-PD1; type: in vivo
Procedure: (§1) Figure 4 LD4172 synergizes with Anti-PD1 to inhibit tumor growth. A, Plasma concentrations of LD4172 in C57BL/6J mice administered 1 mg/kg intravenously (i.v.) or 10 mg/kg intraperitoneally (i.p.) (n=4). B, Representative immunoblots of RIPK1 in different tissues of C57BL/6J mice treated with LD4172 (n=3–4). C, Densitometric analysis of RIPK1 protein levels in different tissues (n=3 or 4). D, Representative immunoblots of RIPK1 levels of B16F10 cells transduced with gRNA specific for RIPK1 or non-targetable control (sgNC). E, B16F10-RIPK1-KO tumors sensitized to anti-PD1 treatment: 3×10^5 B16F10 cells transduced with gRNA specific for RIPK1 or non-targetable control (sgNC) were inoculated into C57BL/6J mice. After seven days, mice with measurable tumors (~100 mm3) were randomly treated with or without anti-PD1 in vivo (100 μg per dose, i.p., every three days, n=8). F, Tumor growth curve of mice with B16F10 tumors treated with LD4172 and/or anti-PD1 (n=8). C57B6/J mice were subcutaneously inoculated with 3×10^5 B16F10 tumor cells. After seven days (tumor size ~ 100 mm3), mice were treated every three days with anti- PD1 (100 μg per dose, i.p.), daily with LD4172 (20 mg/kg, i.p.), a combination of LD4172 and anti-PD1 (same dose as their individual doses), or their corresponding vehicle control. G, Kaplan-Meier survival curve for all experimental groups. H, Final tumor weight (g) from F after 22d of treatment (n=8). I, Representative images of B16F10 tumors collected at the end of treatment. J, Mouse body weight (n=8). K, Tumor growth curve of mice with B16F10 tumors treated with T2I and/or anti-PD1 (n=8). The experimental conditions and treatment regimens were the same as F except using the RIPK1 kinase inhibitor T2I (20 mg/kg, i.p.) to replace LD4172. Representative data from at least three independent experiments are shown. Data are expressed as the mean ± SEM. * p<0.05; ** p<0.01; *** p<0.001, **** p<0.0001, respectively. ns, indicates no statistical significance.
To establish a syngeneic mouse model, 3× 10^5 B16F10 cells resuspended in PBS were mixed 1:1 by volume with Matrigel (354262, Corning) and subcutaneously injected into the right flank of seven-week-old wild-type female C57BL/6J mice on day 0. Treatments were started on day 7 when the tumor volume reached approximately 100 mm^3. Antibodies were administered in 100μL volumes and injected intraperitoneally every three days for the following: anti-PD1 (100 μg, BE0146, BioXcell) and anti-CD8 (500 μg, BE0004, BioXcell). The RIPK1 degrader LD4172 and RIPK1 kinase inhibitor T2I were delivered in 200 μL of vehicle solution (30% PEG400, 5% Tween-80, 5% DMSO) once daily (20 mg/kg, i.p. injection). […] Tumors were measured every three days beginning on day 7 after the challenge until death. […]

[2] = biological target: hERG channel (Homo sapiens, UniProt Q12809); assay: hERG channel inhibition assay; conditions: at 30 μM
[3] = biological target: T1, RIPK1 (Mus musculus, UniProt Q60855); assay: In vivo pharmacodynamics: RIPK1 levels in tissues; parameters: observed a 60% reduction in RIPK1 levels in tumors; from tissue; host or cells: tumors, spleen, lymph nodes, PBMCs, lungs, bone marrow of C57BL/6J mice; species or system C57BL/6J mice
T1 sequence (Q60855 1-656): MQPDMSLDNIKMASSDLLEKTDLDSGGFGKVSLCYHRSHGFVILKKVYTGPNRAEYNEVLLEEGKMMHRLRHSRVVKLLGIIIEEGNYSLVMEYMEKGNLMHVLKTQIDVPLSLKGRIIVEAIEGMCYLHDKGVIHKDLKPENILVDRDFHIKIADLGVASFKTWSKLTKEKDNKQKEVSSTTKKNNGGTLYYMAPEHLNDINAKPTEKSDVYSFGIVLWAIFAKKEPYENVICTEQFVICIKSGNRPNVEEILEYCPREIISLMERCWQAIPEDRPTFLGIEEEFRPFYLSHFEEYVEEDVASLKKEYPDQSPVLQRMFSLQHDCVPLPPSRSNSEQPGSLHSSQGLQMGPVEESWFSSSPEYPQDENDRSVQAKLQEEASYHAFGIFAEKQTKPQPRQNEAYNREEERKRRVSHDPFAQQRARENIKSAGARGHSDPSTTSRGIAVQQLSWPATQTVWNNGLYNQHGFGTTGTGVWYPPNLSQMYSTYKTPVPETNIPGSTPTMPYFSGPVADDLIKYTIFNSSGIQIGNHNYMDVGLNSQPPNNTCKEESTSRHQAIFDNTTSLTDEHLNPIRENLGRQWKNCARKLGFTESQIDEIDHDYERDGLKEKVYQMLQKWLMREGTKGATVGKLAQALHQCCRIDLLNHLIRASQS
Procedure: as §1
To investigate the pharmacodynamics of LD4172 in vivo, we administered LD4172 via the i.p. route and observed a 60% reduction in RIPK1 levels in tumors (20 mg/kg, b.i.d., i.p.) (Fig. 4B–C).

[4] = test system: MC38 tumors; assay: Syngeneic MC38 colon cancer model with anti-PD1; type: in vivo

hERG channel, sequence (Q12809 whole entry): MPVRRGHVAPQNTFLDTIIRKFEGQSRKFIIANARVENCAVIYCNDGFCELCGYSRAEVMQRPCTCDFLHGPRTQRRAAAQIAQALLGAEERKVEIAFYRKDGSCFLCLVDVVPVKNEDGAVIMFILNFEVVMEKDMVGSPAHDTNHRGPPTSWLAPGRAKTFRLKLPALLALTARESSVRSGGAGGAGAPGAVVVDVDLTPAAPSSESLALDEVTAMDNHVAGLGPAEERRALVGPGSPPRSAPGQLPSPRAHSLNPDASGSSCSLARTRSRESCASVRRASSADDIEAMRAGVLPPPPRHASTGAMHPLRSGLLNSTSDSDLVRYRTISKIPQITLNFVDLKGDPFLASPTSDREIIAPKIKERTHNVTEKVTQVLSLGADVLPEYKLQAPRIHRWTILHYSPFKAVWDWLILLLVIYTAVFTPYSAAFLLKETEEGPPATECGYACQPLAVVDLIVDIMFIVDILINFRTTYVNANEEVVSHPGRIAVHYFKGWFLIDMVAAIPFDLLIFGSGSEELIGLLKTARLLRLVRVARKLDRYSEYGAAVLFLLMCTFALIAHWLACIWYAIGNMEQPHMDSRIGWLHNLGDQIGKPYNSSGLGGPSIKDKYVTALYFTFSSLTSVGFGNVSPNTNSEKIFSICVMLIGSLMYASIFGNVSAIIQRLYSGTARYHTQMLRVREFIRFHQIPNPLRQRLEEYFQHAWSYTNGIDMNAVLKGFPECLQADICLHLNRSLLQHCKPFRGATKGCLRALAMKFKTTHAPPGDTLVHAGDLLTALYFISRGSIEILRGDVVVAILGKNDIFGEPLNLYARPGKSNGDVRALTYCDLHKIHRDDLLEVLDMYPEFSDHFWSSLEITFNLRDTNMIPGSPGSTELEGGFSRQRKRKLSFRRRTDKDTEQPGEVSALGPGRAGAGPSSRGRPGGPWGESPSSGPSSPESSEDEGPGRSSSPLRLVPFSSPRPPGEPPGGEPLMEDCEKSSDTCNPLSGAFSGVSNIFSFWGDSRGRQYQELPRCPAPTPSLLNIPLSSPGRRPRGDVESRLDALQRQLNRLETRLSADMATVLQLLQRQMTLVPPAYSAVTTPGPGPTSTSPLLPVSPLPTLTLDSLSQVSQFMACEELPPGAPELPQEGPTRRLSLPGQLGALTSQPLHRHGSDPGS

**Q.** Which results are given for Cc1ncsc1-c1ccc([C@H](C)NC(=O)[C@@H]2C[C@@H](O)CN2C(=O)[C@@H](NC(=O)CCCCCCCCCCC(=O)NCCCn2cc(-c3ccc4c(c3)CCN4C(=O)Cc3cccc(OC(F)(F)F)c3)c3c(N)ncnc32)C(C)(C)C)cc1 [LD4172]?
**A.** tumor response in combination with anti-PD1 ([1]; B16F10 tumors, 20 mg/kg i.p. daily plus anti-PD1 100 μg i.p. every three days): sensitized B16F10 tumors to anti-PD1 therapy; tumor progression, single agent ([1]; B16F10 tumors, LD4172 20 mg/kg i.p. daily, anti-PD1 100 μg i.p. every three days): tumor progression similar to that of the untreated mice; mouse body weight ([1]; long-term administration): no impact on mouse body weight; inhibition of hERG [2]: no obvious inhibition; reduction in RIPK1 levels in tumors ([3]; 20 mg/kg, b.i.d., i.p.): 60%; RIPK1 degradation in lymph nodes, PBMCs, lungs, and bone marrow ([3]; i.p.): no significant RIPK1 degradation; RIPK1 degradation in the spleen ([3]; i.p.): less than 50%; RIPK1 degradation in tumors, intratumoral administration ([3]; intratumoral vs i.p.): improved RIPK1 degradation in the tumors; tumor response in combination with anti-PD1 [4]: substantially sensitized MC38 tumors to anti-PD1 therapy
